For ten compounds, chromatographic logP, logP and Wirkungsgrad results are on record in EP1974608A1, “Arylpyridazines as fungicides” (Bayer CropScience AG, priority 2007, dated 2008).

SMILES strings stand for the structures. Like-named read-outs stand apart in the source and are kept apart here.

Usually logP stands for a log measure of how a compound divides between an organic and an aqueous phase. Lower therefore signals lower lipophilicity.

The nature of data set [1]: logP determination by reversed-phase HPLC (C18), EEC Directive 79/831 Annex V.A8. It counts as physicochemical.
For a further data set, the system named is Venturia inaequalis. Briefly: Venturia test (apple) / protective. Particulars: 100ppm Wirkstoff; protective spray on young apple plants; evaluated 10 days after inoculation. It counts as in vivo. The source says: Venturia - Test (Apfel) / protektiv
(§1) Zur Herstellung einer zweckmäßigen Wirkstoffzubereitung vermischt man 1 Gewichtsteil Wirkstoff mit den angegebenen Mengen Lösungsmittel und Emulgator und verdünnt das Konzentrat mit Wasser auf die gewünschte Konzentration.
Zur Prüfung auf protektive Wirksamkeit werden junge Pflanzen mit der Wirkstoff zubereitung in der angegebenen Aufwandmenge besprüht. Nach Antrocknen des Spritzbelages werden die Pflanzen mit einer wäßrigen Konidiensuspension des Apfelschorferregers Venturia inaequalis inokuliert und verbleiben dann 1 Tag bei ca. 20°C und 100% relativer Luftfeuchtigkeit in einer Inkubations-kabine.
Die Pflanzen werden dann im Gewächshaus bei ca, 21°C und einer relativen Luftfeuchtigkeit von ca. 90% aufgestellt.
10 Tage nach der Inokulation erfolgt die Auswertung. Dabei bedeutet 0% ein Wirkungsgrad, der demjenigen der Kontrolle entspricht, während ein Wirkungsgrad von 100% bedeutet, daß kein Befall beobachtet wird.

A further data set relates to Alternaria solani. Briefly: Alternaria test (tomato) / protective. Type of data set: in vivo. Particulars: 500ppm Wirkstoff; protective spray on young tomato plants; evaluated 7 days after inoculation.
Excerpt: Alternaria-Test (Tomate) / protektiv
as §1
Zur Prüfung auf protektive Wirksamkeit bespritzt man junge Tomatenpflanzen mit der Wirkstoffzubereitung in der angegebenen Aufwandmenge. 1 Tag nach der Behandlung werden die Pflanzen mit einer Sporensuspension von Alternaria solani inokuliert und stehen dann 24h bei 100% rel. Feuchte und 20°C. Anschließend stehen die Pflanzen bei 96% rel. Luftfeuchtigkeit und einer Temperatur von 20°C.
7 Tage nach der Inokulation erfolgt die Auswertung. Dabei bedeutet 0 % ein Wirkungsgrad, der demjenigen der Kontrolle entspricht, während ein Wirkungsgrad von 100 % bedeutet, dass kein Befall beobachtet wird.

Setting [2] is: HPLC method of the footnote to Tabelle 1.
The mark [3] stands for this setting: reversed-phase c18 hplc, HPLC, 40°C, 0.1% aqueous formic acid / acetonitrile gradient 10% to 95%, read-out: log p.

In the case of `CC(Br)C(=O)c1ccc(Cl)cc1` (stereo not shown) [2-Brom-1-(4-chlorphenyl)propan-1-on], the chromatographic logP in data set [1] (reversed-phase c18 hplc, HPLC method of the footnote to Tabelle 1) worked out at 3.39. In data set [1] (setting [2]), `CC1(O)OC(=O)C(c2cccs2)=C1c1ccc(Cl)cc1` (stereo not shown) [4-(4-Chlorphenyl)-5-hydroxy-5-methyl-3-(2-thienyl)furan-2(5H)-on] showed a logP of 3.05.

`Cc1n[nH]c(=O)c(-c2cccn2C)c1-c1ccc(Cl)cc1` [5-(4-Chlorphanyl)-4-(1-Methyl-1H-pyrrol-2-yl)-6-methylpyridazin-3(2H)-on] showed a logP in data set [1] (setting [2]) of 2.45.

Consider `Cc1nc(-c2c(-c3ccc(Cl)cc3)c(C)n[nH]c2=O)cs1` [5-(4-Chlorphenyl)-4-(2-methyl-1,3-thiazol-4-yl)-6-methylpyridazin-3(2H)-on], for which the logP in data set [1] (setting [2]) came to 2.26. In data set [1] (setting [2]), `Cc1n[nH]c(=O)c(-c2cccs2)c1-c1ccc(Cl)cc1` [5-(4-Chlorphenyl)-4-(2-thienyl)-6-methylpyridazin-3(2H)-on] came in with a logP of 2.71. With `Cc1n[nH]c(=O)c(-c2nc(Cl)c(Cl)s2)c1-c1ccc(Cl)cc1` [5-(4-Chlorphenyl)-4-(4,5-Dichlor-1,3-thiazol-2-yl)-6-methylpyridazin-3(2H)-on], the logP in data set [1] (setting [2]) was determined as 3.94. On to `Cc1nc(-c2c(Cl)nnc(C)c2-c2ccc(Cl)cc2)cs1` [Beispiel 26], for which the chromatographic logP in data set [1] (setting [3]) is 2.82. Turning to `Cc1nnc(Cl)c(-c2cccn2C)c1-c1ccc(Cl)cc1` [Beispiel 27], the chromatographic logP in data set [1] (setting [3]) was 3.24. Regarding `Cc1nnc(Cl)c(-c2nc(Cl)c(Cl)s2)c1-c1ccc(Cl)cc1` [Beispiel 28], the chromatographic logP in data set [1] (setting [3]) came out at 4.32. On to `Cc1nnc(Cl)c(-c2cccs2)c1-c1ccc(Cl)cc1` [Beispiel 29, 3-Chlor-5-(4-chlorphenyl)-4-(2-thienyl)-6-methylpyridazin], for which the Wirkungsgrad in the data set with Venturia inaequalis and in the data set with Alternaria solani was at least 70% in each case. Further, the chromatographic logP in data set [1] (c18 reversed-phase hplc, HPLC method of the footnote to Tabelle 1) was determined as 3.41; in data set [1] (setting [3]) it was 3.41.
